± gives the standard deviation of the averaged measurements.
System: KHOS-240S
Assay: relative viability vs DMSO control (72 h) (fraction); higher = more viable cells
Procedure, shortened: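 Relative viability is percent growth read by ATPLite and averaged over up to triplicate wells. Sarcoma cells were seeded in 384-well plates to reach 80–90% confluence and given 2.5 µl of serially diluted compound after 24 h, from source plates of 10 mM to 0.0002 mM. Incubation lasted 72 h at 37 °C, 5% CO2, with 0.1% DMSO vehicle and a 5 µM positive control, and the data were rescaled so 1 equals full and 0 equals none.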

| SMILES | relative viability (0.00017 µM) | relative viability (0.00051 µM) | relative viability (0.00152 µM) | relative viability (0.00457 µM) | relative viability (0.01372 µM) | relative viability (0.04115 µM) | relative viability (0.1235 µM) | relative viability (0.3704 µM) | relative viability (1.111 µM) | relative viability (3.333 µM) | relative viability (10 µM) | relative viability (2 pM) | relative viability (5 pM) | relative viability (15 pM) | relative viability (50 pM) | relative viability (0.00014 µM) | relative viability (0.00041 µM) | relative viability (0.0012 µM) | relative viability (0.0037 µM) | relative viability (0.011 µM) | relative viability (200 fM) | relative viability (600 fM) |
| --- | --- | --- | --- | --- | --- | --- | --- | --- | --- | --- | --- | --- | --- | --- | --- | --- | --- | --- | --- | --- | --- | --- |
| CN1CCN(c2ccc3nc(-c4c(N)c5c(F)cccc5[nH]c4=O)[nH]c3c2)CC1 [Dovitinib] | 1.07 ± 0.031 | 1.04 ± 0.051 | 1.06 ± 0.046 | 1.02 ± 0.023 | 1.05 ± 0.033 | 1.08 ± 0.019 | 0.979 ± 0.022 | 0.891 ± 0.059 | 0.548 ± 0.014 | 0.289 ± 0.027 | 0.0854 ± 0.0022 |  |  |  |  |  |  |  |  |  |  |  |
| COc1cc2c(cc1O)CCN[C@]21CS[C@@H]2c3c(OC(C)=O)c(C)c4c(c3[C@H](COC1=O)N1[C@@H]2[C@H]2c3c(cc(C)c(OC)c3O)C[C@@H]([C@@H]1O)N2C)OCO4 [Trabectedin] |  |  |  |  |  |  |  |  |  |  |  | 1.07 ± 0.015 | 1.082 ± 0.0023 | 1.07 ± 0.042 | 0.946 ± 0.034 | 0.482 ± 0.054 | 0.00547 ± 0.0011 | 0.0576 ± 0.0015 | 0.0794 ± 0.014 | 0.0885 ± 0.032 | 1.08 ± 0.022 | 1.08 ± 0.022 |
| C=CC(=O)Nc1cccc(Oc2nc(Nc3ccc(N4CCN(C)CC4)cc3)nc3ccsc23)c1 [Olmutinib] | 1.01 ± 0.015 | 1.03 ± 0.014 | 1.04 ± 0.018 | 1.02 ± 0.025 | 1.01 ± 0.024 | 1.04 ± 0.011 | 1.03 ± 0.032 | 0.997 ± 0.04 | 0.998 ± 0.035 | 0.865 ± 0.036 | 0.39 ± 0.017 |  |  |  |  |  |  |  |  |  |  |  |
| CC(C)NC(=O)C1CCC(n2c(NC(=O)c3ccc(F)cc3)nc3ccc(CN4CCC(C(C)(C)O)CC4)cc32)CC1 (stereo not given) [Belizatinib] | 1.07 ± 0.02 | 1.06 ± 0.012 | 1.07 ± 0.043 | 1.08 ± 0.013 | 1.08 ± 0.041 | 1.06 ± 0.033 | 1.06 ± 0.034 | 0.923 ± 0.02 | 0.713 ± 0.038 | 0.399 ± 0.0041 | 0.189 ± 0.0089 |  |  |  |  |  |  |  |  |  |  |  |
| CCN1CCN(Cc2ccc(Nc3ncc(F)c(-c4cc(F)c5nc(C)n(C(C)C)c5c4)n3)nc2)CC1 [Abemaciclib] | 1.04 ± 0.038 | 1.07 ± 0.061 | 1.07 ± 0.059 | 1.05 ± 0.039 | 1.04 ± 0.048 | 1 ± 0.077 | 0.892 ± 0.071 | 0.834 ± 0.028 | 0.736 ± 0.024 | 0.7 ± 0.014 | 0.539 ± 0.025 |  |  |  |  |  |  |  |  |  |  |  |
| COc1c(OCCCN2CCOCC2)ccc2c1N=C(NC(=O)c1cnc(N)nc1)N1CCN=C21 [Copanlisib] | 1.09 ± 0.041 | 1.02 ± 0.048 | 1.06 ± 0.013 | 0.922 ± 0.094 | 0.889 ± 0.098 | 0.833 ± 0.09 | 0.714 ± 0.014 | 0.629 ± 0.022 | 0.409 ± 0.018 | 0.217 ± 0.008 | 0.188 ± 0.003 |  |  |  |  |  |  |  |  |  |  |  |
| Cc1nc(-c2cn3c(n2)-c2ccc(-c4cnn(C(C)(C)C(N)=O)c4)cc2OCC3)n(C(C)C)n1 [Taselisib] | 1.03 ± 0.013 | 1.03 ± 0.024 | 1.01 ± 0.031 | 1.02 ± 0.049 | 0.952 ± 0.029 | 0.911 ± 0.012 | 0.856 ± 0.018 | 0.793 ± 0.041 | 0.725 ± 0.037 | 0.684 ± 0.049 | 0.566 ± 0.017 |  |  |  |  |  |  |  |  |  |  |  |
| O=C(Cc1ccc(-c2ccc(OCCN3CCOCC3)cc2)cn1)NCc1ccccc1 [KX2-391] | 1.07 ± 0.025 | 1.1 ± 0.037 | 1.1 ± 0.02 | 1.07 ± 0.035 | 1.06 ± 0.049 | 0.896 ± 0.022 | 0.26 ± 0.013 | 0.221 ± 0.014 | 0.161 ± 0.011 | 0.142 ± 0.02 | 0.134 ± 0.015 |  |  |  |  |  |  |  |  |  |  |  |
| C[C@@H]1COCCN1c1cc(-c2ccnn2C)c2ccnc(-c3ccn[nH]3)c2n1 | 1.04 ± 0.014 | 1.06 ± 0.013 | 1.07 ± 0.042 | 1.04 ± 0.011 | 1.01 ± 0.036 | 0.783 ± 0.028 | 0.366 ± 0.051 | 0.194 ± 0.026 | 0.161 ± 0.0077 | 0.129 ± 0.0056 | 0.119 ± 0.0037 |  |  |  |  |  |  |  |  |  |  |  |
| Cc1cnc(Nc2ccc(OCCN3CCCC3)cc2)nc1Nc1cccc(S(=O)(=O)NC(C)(C)C)c1 [Fedratinib] | 1.07 ± 0.046 | 1.07 ± 0.047 | 1.07 ± 0.033 | 1.06 ± 0.023 | 1.05 ± 0.058 | 1.05 ± 0.094 | 0.989 ± 0.062 | 0.801 ± 0.018 | 0.412 ± 0.031 | 0.103 ± 0.011 | 0.0053 ± 0.0017 |  |  |  |  |  |  |  |  |  |  |  |
